PubChem BioAssay (NCI)
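Assay format: 96-well plates, 48-hour exposure. GI50 marks 50% less growth. TGI: total growth inhibition.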

Experiments:
Experiment in all cases: NCI tumour cell line growth inhibition, 48 h
[1] = test system: 786-0 renal
[2] = test system: A549 NSCLC
[3] = test system: ACHN renal
[4] = test system: BT-549 breast
[5] = test system: CAKI-1 renal
[6] = test system: CCRF-CEM leukemia
[7] = test system: COLO 205 colon
[8] = test system: DU-145 prostate
[9] = test system: EKVX NSCLC
[10] = test system: HCC-2998 colon
[11] = test system: HCT-116 colon
[12] = test system: HCT-15 colon
[13] = test system: HL-60(TB) leukemia
[14] = test system: HOP-62 NSCLC
[15] = test system: HOP-92 NSCLC
[16] = test system: HS 578T breast
[17] = test system: HT29 colon
[18] = test system: IGROV1 ovarian
[19] = test system: K-562 leukemia
[20] = test system: KM12 colon
[21] = test system: LOX IMVI melanoma
[22] = test system: M14 melanoma
[23] = test system: MALME-3M melanoma
[24] = test system: MCF7 breast
[25] = test system: MDA-MB-231 breast
[26] = test system: MDA-MB-435
[27] = test system: MDA-N
[28] = test system: MOLT-4 leukemia
[29] = test system: NCI-H226 lung
[30] = test system: NCI-H23 lung
[31] = test system: NCI-H460 lung
[32] = test system: NCI-H522 lung
[33] = test system: NCI/ADR-RES ovarian
[34] = test system: OVCAR-3 ovarian
[35] = test system: OVCAR-4 ovarian
[36] = test system: OVCAR-5 ovarian
[37] = test system: OVCAR-8 ovarian
[38] = test system: PC-3 prostate
[39] = test system: RPMI-8226 leukemia
[40] = test system: RXF 393 renal
[41] = test system: SF-268 CNS
[42] = test system: SF-295 CNS
[43] = test system: SF-539 CNS
[44] = test system: SK-MEL-2 melanoma
[45] = test system: SK-MEL-28 melanoma
[46] = test system: SK-MEL-5 melanoma
[47] = test system: SK-OV-3 ovarian
[48] = test system: SN12C renal
[49] = test system: SNB-19 CNS
[50] = test system: SR leukemia
[51] = test system: SW-620 colon
[52] = test system: T-47D breast
[53] = test system: TK-10 renal
[54] = test system: U251 CNS
[55] = test system: UACC-257 melanoma
[56] = test system: UACC-62 melanoma
[57] = test system: UO-31 renal
[58] = test system: A498 renal
[59] = test system: SNB-75 CNS

CC(C)(C)n1c(=O)n(C(=O)C(Cl)(Cl)Cl)n(C(=O)C(Cl)(Cl)Cl)c1=O
TGI [1]: > 100 µM | TGI [2]: > 100 µM | TGI [3]: > 100 µM | TGI [4]: > 100 µM | TGI [5]: > 100 µM | TGI [6]: > 100 µM | TGI [7]: > 100 µM | TGI [8]: > 100 µM | TGI [9]: > 100 µM | TGI [10]: > 100 µM | TGI [11]: > 100 µM | TGI [12]: > 100 µM | TGI [13]: > 100 µM | TGI [14]: > 100 µM | TGI [15]: > 100 µM | TGI [16]: > 100 µM | TGI [17]: > 100 µM | TGI [18]: > 100 µM | TGI [19]: > 100 µM | TGI [20]: > 100 µM | TGI [21]: > 100 µM | TGI [22]: > 100 µM | TGI [23]: > 100 µM | TGI [24]: > 100 µM | TGI [25]: > 100 µM | TGI [26]: > 100 µM | TGI [27]: > 100 µM | TGI [28]: > 100 µM | TGI [29]: > 100 µM | TGI [30]: > 100 µM | TGI [31]: > 100 µM | TGI [32]: > 100 µM | TGI [33]: > 100 µM | TGI [34]: > 100 µM | TGI [35]: > 100 µM | TGI [36]: > 100 µM | TGI [37]: > 100 µM | TGI [38]: > 100 µM | TGI [39]: > 100 µM | TGI [40]: > 100 µM | TGI [41]: > 100 µM | TGI [42]: > 100 µM | TGI [43]: > 100 µM | TGI [44]: > 100 µM | TGI [45]: > 100 µM | TGI [46]: > 100 µM | TGI [47]: > 100 µM | TGI [48]: > 100 µM | TGI [49]: > 100 µM | TGI [50]: > 100 µM | TGI [51]: > 100 µM | TGI [52]: > 100 µM | TGI [53]: > 100 µM | TGI [54]: > 100 µM | TGI [55]: > 100 µM | TGI [56]: > 100 µM | TGI [57]: > 100 µM

Cc1cc(N=Cc2c(CO)cnc(C)c2O)c(N=Cc2c(CO)cnc(C)c2O)cc1C.[Zn]
TGI [1]: > 100 µM | TGI [58]: > 100 µM | TGI [2]: > 100 µM | TGI [3]: > 100 µM | TGI [4]: > 100 µM | TGI [5]: > 100 µM | TGI [7]: > 100 µM | TGI [8]: > 100 µM | TGI [9]: > 100 µM | TGI [10]: > 100 µM | TGI [11]: > 100 µM | TGI [12]: > 100 µM | GI50 [13]: > 100 µM | TGI [13]: > 100 µM | TGI [14]: > 100 µM | TGI [15]: > 100 µM | TGI [16]: > 100 µM | TGI [17]: > 100 µM | TGI [18]: > 100 µM | TGI [20]: > 100 µM | TGI [21]: > 100 µM | TGI [22]: > 100 µM | TGI [24]: > 100 µM | TGI [25]: > 100 µM | TGI [26]: > 100 µM | TGI [27]: > 100 µM | TGI [28]: > 100 µM | TGI [29]: > 100 µM | TGI [31]: > 100 µM | TGI [32]: > 100 µM | TGI [33]: > 100 µM | TGI [34]: > 100 µM | TGI [35]: > 100 µM | TGI [36]: > 100 µM | TGI [37]: > 100 µM | TGI [38]: > 100 µM | GI50 [39]: > 100 µM | TGI [39]: > 100 µM | TGI [40]: > 100 µM | TGI [41]: > 100 µM | TGI [42]: > 100 µM | TGI [43]: > 100 µM | TGI [44]: > 100 µM | TGI [45]: > 100 µM | TGI [46]: > 100 µM | TGI [47]: > 100 µM | TGI [48]: > 100 µM | TGI [49]: > 100 µM | TGI [59]: > 100 µM | GI50 [50]: > 100 µM | TGI [50]: > 100 µM | TGI [51]: > 100 µM | TGI [52]: > 100 µM | TGI [53]: > 100 µM | TGI [54]: > 100 µM | TGI [55]: > 100 µM | TGI [56]: > 100 µM | TGI [57]: > 100 µM

OCC(Cn1cncn1)(c1ccc(F)cc1F)n1cncn1 (stereo unspecified)
TGI [1]: > 100 µM | TGI [58]: > 100 µM | TGI [2]: > 100 µM | TGI [3]: > 100 µM | TGI [4]: > 100 µM | TGI [5]: > 100 µM | TGI [6]: > 100 µM | TGI [7]: > 100 µM | TGI [8]: > 100 µM | TGI [10]: > 100 µM | TGI [11]: > 100 µM | TGI [12]: > 100 µM | TGI [13]: > 100 µM | TGI [14]: > 100 µM | TGI [16]: > 100 µM | TGI [17]: > 100 µM | TGI [18]: > 100 µM | TGI [19]: > 100 µM | TGI [20]: > 100 µM | TGI [21]: > 100 µM | TGI [22]: > 100 µM | TGI [23]: > 100 µM | TGI [24]: > 100 µM | TGI [25]: > 100 µM | TGI [26]: > 100 µM | TGI [27]: > 100 µM | TGI [28]: > 100 µM | TGI [29]: > 100 µM | TGI [30]: > 100 µM | TGI [31]: > 100 µM | TGI [32]: > 100 µM | TGI [33]: > 100 µM | TGI [34]: > 100 µM | TGI [36]: > 100 µM | TGI [37]: > 100 µM | TGI [38]: > 100 µM | TGI [39]: > 100 µM | TGI [40]: > 100 µM | TGI [41]: > 100 µM | TGI [42]: > 100 µM | TGI [43]: > 100 µM | TGI [44]: > 100 µM | TGI [45]: > 100 µM | TGI [46]: > 100 µM | TGI [47]: > 100 µM | TGI [48]: > 100 µM | TGI [49]: > 100 µM | TGI [59]: > 100 µM | TGI [50]: > 100 µM | TGI [51]: > 100 µM | TGI [52]: > 100 µM | TGI [53]: > 100 µM | TGI [54]: > 100 µM | TGI [55]: > 100 µM | TGI [56]: > 100 µM | TGI [57]: > 100 µM
